In brackets after ≈: the same amount, converted by molar mass.
Test system: HIV-1 (RF)
Experiment: HIV RNA assay: microplate based compound evaluation in HIV-1 infected MT-2 cells
Assay type: cell-based
Settings: Human immunodeficiency virus 1, MT2, 72 h; HIV-1 (RF) infected MT-2 cells, 3 days of culture; virus dilutions selected to standardize the inoculum to this value; read-out: IC90 value (concentration of compound required to reduce the HIV RNA level by 90%)
Protocol: Plasmid pDAB 72 containing both gag and pol sequences of BH 10 (bp 113-1816) cloned into PTZ 19R was prepared according to Erickson-Viitanen et al. AIDS Research and Human Retroviruses 1989, 5, 577. The plasmid was linearized with Bam HI prior to the generation of in vitro RNA transcripts using the Riboprobe Gemini system 11 kit (Promega) with T7 RNA polymerase. Synthesized RNA was purified by treatment with RNase free DNAse (Promega), phenol-chloroform extraction, and ethanol precipitation. RNA transcripts were dissolved in water, and stored at −70° C. The concentration of RNA was determined from the A260.
Biotinylated capture probes were purified by HPLC after synthesis on an Applied Biosystems (Foster City, Calif.) DNA synthesizer by addition of biotin to the 5′ terminal end of the oligonucleotide, using the biotin-phosphoramidite reagent of Cocuzza, Tet. Lett. 1989, 30, 6287. […]
MT-2 and MTA cells were maintained in RPM 1640 supplemented with 5% fetal calf serum (FCS) for MT-2 cells or 10% FCS for MTA cells, 2 mM L-glutamine and 50 μg/mL gentamycin, all from Gibco. […] Infectious titers of HIV-1 (RF) stocks were 1-3×10^7 PFU (plaque forming units)/mL as measured by plaque assay on MT-2 cells (see below). […]

IC90: 0.2 µg/mL (≈ 0.947 µM)
SMILES: Nc1ccn([C@H]2CC[C@@H](CO)O2)c(=O)n1 [ddC, dideoxycytidine]
